Laboratory results published in US7253166B2, “6-phenyl-7H-pyrrolo[2,3-d]pyrimidine compounds that induce neuronal differentiation in embryonic stem cells” (IRM LLC, priority 2003, dated 2007).

What was measured:
PDGFR-β = PDGFR-β (Homo sapiens, UniProt P09619); test: Kinase inhibition PDGFR-β; format: biochemical
c-Kit = c-Kit (Homo sapiens, UniProt P10721); test: Kinase inhibition c-Kit; format: biochemical
[1] = system: GSK-3β/β-catenin signaling; test: GSK-3β/β-catenin-dependent signaling, TCF/LEF (pTOPFLASH) luciferase reporter in P19 cells; format: cell-based; conditions: 10 μM, 36 hours
Procedure: P19 cells are co-transfected with pTOPFLASH (containing four consensus LEF-1/TCF-1 binding sites, a minimal promoter and a firefly luciferase reporter) and renilla luciferase control reporter (Promega). […] Thirty-six hours later, cells are lysed and protein extracts are assayed for luciferase activity. The fold induction offirefly luciferase activity is normalized to renilla luciferase activity. The normalized activities are averaged over three experiments.

HER-2 = HER-2 (Homo sapiens, UniProt P04626); test: Kinase inhibition HER-2; format: biochemical
KDR = KDR (Homo sapiens, UniProt P35968); test: Kinase inhibition KDR; format: biochemical
c-Abl = c-Abl (Homo sapiens, UniProt P00519); test: Kinase inhibition c-Abl; format: biochemical
HER-1 = HER-1 (Homo sapiens, UniProt P00533); test: Kinase inhibition HER-1; format: biochemical
Tek = Tek (Homo sapiens, UniProt Q02763); test: Kinase inhibition Tek; format: biochemical
Flt-4 = Flt-4 (Homo sapiens, UniProt P35916); test: Kinase inhibition Flt-4; format: biochemical
c-src = c-src (Homo sapiens, UniProt P12931); test: Kinase inhibition c-src; format: biochemical
Flt-1 = Flt-1 (Homo sapiens, UniProt P17948); test: Kinase inhibition Flt-1; format: biochemical
P19 cells = test: Neuronal differentiation in P19 cell monolayers (morphology, immunostaining with neuronal markers); format: cell-based; conditions: 1 μM

Chain of c-Abl (P00519 whole entry): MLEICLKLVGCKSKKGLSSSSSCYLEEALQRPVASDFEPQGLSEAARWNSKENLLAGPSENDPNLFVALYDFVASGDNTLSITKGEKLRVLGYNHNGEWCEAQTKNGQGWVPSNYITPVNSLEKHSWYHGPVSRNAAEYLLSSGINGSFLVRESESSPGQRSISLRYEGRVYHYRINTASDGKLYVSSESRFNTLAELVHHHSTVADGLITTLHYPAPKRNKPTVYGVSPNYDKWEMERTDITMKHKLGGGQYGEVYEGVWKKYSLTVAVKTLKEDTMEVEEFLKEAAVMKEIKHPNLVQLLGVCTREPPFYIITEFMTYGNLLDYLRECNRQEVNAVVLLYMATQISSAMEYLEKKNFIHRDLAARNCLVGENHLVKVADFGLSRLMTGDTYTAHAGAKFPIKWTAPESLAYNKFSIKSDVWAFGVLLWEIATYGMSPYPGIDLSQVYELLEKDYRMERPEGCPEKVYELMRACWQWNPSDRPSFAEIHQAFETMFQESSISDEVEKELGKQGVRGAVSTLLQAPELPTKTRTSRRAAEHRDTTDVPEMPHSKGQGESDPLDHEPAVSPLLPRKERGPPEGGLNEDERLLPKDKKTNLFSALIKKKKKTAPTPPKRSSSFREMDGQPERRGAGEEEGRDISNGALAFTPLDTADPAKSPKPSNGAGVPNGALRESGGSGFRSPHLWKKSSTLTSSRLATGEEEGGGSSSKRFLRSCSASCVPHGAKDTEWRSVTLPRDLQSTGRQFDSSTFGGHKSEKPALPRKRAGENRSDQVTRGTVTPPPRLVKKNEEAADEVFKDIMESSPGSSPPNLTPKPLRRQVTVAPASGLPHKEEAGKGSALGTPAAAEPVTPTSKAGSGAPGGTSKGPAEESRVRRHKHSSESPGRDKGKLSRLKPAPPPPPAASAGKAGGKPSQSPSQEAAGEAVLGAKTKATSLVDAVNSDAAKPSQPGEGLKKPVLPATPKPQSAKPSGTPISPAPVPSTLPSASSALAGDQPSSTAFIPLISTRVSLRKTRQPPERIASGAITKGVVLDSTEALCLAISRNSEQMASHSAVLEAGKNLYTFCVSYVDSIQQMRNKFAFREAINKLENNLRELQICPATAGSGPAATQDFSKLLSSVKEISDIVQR
Chain of c-Kit (P10721 26-976): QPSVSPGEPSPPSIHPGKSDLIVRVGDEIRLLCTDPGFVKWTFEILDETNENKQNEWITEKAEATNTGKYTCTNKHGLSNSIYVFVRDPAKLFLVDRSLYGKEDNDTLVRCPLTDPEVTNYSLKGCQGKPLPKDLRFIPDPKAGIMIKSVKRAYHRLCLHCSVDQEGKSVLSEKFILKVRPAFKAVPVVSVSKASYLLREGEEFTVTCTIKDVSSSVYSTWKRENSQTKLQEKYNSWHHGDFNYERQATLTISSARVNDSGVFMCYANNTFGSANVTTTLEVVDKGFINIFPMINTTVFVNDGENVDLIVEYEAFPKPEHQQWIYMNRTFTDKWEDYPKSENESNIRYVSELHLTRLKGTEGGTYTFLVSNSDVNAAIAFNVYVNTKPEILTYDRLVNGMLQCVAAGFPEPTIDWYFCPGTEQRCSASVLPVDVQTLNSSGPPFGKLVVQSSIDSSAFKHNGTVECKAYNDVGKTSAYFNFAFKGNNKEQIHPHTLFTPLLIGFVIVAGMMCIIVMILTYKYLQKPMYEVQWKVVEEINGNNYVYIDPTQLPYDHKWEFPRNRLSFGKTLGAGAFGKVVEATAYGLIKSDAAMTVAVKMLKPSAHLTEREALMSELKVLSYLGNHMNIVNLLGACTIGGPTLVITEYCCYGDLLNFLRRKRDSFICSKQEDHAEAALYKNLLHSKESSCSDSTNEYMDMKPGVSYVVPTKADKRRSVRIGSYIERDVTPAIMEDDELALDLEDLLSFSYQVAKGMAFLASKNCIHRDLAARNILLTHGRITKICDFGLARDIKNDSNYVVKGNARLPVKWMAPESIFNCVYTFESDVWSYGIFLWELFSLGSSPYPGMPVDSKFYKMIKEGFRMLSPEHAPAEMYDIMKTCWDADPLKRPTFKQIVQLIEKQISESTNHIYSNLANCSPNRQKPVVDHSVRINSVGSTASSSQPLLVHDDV
Chain of HER-2 (P04626 23-1255, species assumed): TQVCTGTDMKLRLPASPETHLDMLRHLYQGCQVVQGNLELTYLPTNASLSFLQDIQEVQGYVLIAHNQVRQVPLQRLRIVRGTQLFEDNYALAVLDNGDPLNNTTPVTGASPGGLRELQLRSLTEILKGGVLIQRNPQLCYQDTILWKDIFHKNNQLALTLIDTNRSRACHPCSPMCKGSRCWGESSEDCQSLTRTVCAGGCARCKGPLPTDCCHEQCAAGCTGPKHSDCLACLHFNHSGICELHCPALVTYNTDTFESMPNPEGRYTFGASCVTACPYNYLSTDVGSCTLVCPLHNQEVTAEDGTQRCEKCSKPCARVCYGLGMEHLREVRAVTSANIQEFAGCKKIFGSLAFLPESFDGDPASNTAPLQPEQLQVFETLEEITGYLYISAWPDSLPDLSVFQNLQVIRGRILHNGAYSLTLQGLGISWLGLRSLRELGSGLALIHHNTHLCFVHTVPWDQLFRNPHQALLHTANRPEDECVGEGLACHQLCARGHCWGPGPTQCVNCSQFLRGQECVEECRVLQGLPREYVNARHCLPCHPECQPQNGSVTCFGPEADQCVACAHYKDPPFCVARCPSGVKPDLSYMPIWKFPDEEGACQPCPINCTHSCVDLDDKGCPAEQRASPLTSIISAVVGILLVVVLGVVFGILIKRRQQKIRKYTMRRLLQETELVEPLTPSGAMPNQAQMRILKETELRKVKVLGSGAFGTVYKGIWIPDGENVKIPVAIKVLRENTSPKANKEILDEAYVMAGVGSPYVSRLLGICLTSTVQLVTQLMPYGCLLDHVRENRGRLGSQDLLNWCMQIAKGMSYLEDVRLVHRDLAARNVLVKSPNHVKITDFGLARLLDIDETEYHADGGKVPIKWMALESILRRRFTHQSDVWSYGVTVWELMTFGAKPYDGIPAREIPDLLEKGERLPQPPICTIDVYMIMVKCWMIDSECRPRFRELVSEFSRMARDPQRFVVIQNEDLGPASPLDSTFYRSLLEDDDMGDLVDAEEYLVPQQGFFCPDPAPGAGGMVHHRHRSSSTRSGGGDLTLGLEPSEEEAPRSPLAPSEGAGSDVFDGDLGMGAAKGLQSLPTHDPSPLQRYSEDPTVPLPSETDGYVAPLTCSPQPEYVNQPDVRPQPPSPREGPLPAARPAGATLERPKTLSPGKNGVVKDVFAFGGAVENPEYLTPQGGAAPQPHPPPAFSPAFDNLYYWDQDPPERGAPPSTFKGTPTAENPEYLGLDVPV
Chain of HER-1 (P00533 25-1210, species assumed): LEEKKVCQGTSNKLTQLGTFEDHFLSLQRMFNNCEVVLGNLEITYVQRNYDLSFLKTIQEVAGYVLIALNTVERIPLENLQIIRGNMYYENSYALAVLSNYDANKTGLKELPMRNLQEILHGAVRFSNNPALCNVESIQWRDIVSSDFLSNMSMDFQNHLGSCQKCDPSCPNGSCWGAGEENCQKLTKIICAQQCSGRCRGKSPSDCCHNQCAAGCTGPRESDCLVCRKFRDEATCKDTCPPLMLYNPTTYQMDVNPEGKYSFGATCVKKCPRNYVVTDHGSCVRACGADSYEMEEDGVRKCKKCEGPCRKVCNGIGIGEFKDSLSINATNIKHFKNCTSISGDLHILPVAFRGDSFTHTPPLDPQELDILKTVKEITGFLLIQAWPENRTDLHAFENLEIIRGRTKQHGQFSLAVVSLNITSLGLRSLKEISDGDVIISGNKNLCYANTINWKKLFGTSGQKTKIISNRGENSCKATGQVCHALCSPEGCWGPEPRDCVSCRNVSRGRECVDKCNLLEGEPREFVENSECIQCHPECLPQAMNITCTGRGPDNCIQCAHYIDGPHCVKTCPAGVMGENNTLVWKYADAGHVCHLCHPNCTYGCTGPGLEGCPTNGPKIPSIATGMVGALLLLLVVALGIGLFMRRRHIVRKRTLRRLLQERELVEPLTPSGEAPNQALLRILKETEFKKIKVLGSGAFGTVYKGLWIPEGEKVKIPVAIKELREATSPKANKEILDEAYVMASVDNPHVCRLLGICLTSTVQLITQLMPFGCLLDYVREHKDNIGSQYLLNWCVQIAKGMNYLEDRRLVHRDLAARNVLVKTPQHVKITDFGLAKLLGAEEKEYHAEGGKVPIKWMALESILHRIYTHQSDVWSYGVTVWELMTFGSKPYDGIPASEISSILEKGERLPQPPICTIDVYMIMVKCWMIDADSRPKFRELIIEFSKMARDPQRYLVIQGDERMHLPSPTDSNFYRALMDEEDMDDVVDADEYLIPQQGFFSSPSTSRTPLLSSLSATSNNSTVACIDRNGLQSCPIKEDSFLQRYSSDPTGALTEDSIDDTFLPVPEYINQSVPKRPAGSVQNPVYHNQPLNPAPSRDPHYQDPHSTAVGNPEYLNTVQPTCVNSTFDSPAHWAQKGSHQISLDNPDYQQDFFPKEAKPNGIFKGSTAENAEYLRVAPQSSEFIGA
Chain of c-src (P12931 whole entry, species assumed): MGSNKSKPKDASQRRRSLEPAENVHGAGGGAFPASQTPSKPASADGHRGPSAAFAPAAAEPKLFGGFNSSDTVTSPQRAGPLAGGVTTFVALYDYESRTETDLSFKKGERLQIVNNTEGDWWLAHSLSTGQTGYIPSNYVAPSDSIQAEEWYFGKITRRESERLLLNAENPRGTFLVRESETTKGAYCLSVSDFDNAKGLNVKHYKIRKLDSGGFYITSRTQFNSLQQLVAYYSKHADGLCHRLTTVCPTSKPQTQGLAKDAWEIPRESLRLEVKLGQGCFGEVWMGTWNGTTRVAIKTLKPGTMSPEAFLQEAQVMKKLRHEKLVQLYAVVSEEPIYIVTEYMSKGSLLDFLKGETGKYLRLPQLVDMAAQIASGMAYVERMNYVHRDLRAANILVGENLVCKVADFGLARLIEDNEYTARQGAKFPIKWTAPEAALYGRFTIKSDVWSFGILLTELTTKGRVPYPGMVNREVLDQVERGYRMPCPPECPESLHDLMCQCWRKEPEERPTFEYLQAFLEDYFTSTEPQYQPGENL

Question: What does the source list for `Nc1cccc(-c2cc3c(Oc4cccc(O)c4)ncnc3[nH]2)c1` [Example 1, 3-[6-(3-Amino-phenyl)-7H-pyrrolo[2,3-d]pyrimidin-4-yloxy]-phenol]?
Answer: inhibition at 10 µM (PDGFR-β): 100%; inhibition at 10 µM (c-Kit; 10 μM): 100%; IC50 (c-Kit; read-out: IC50 against c-Kit): 20 nM; increase in β-catenin induced TCF/LEF reporter activity [1]: eleven; inhibition at 10 µM (HER-2; 10 μM): 100%; IC50 (HER-2; read-out: IC50 against HER-2): 30 nM; inhibition at 10 µM (KDR): 100%; inhibition at 10 µM (c-Abl; 10 μM): 100%; IC50 (c-Abl; read-out: IC50 against c-Abl): 4.5 nM; inhibition at 10 µM (HER-1): 100%; inhibition at 10 µM (Tek): 100%; inhibition at 10 µM (Flt-4): 100%; inhibition at 10 µM (c-src): 100%; inhibition at 10 µM (Flt-1): 100%; differentiation of P19 cells into glial and muscle cells (P19 cells): not detected; nestin immunostaining of the remaining cells (neuronal progenitor cells) (P19 cells): immunostained positively for nestin; cells differentiating specifically into neuronal lineages (P19 cells; monolayers of P19 cells, neuronal morphology and immunostaining with neuronal specific markers): 30-40%
